From patent US20140073631A1 (priority 2012, published 2014)
≈ marks a conversion by molar mass, not a printed value. Entries after “also recorded” stand apart in the source; their conditions may differ. Where two headings read alike, the source gives them in different places.

How the values were obtained:
[1] = test system: B. pseudomallei; assay: microbe, parasite or virus in culture; assay type: cell-based; settings: Burkholderia pseudomallei, read-out: MIC B. pseudomallei
[2] = test system: Burkholderia mallei; assay: microbe, parasite or virus in culture; assay type: cell-based
[3] = test system: Yersinia pestis; assay: microbe, parasite or virus in culture; assay type: cell-based
[4] = test system: Francisella tularensis; assay: microbe, parasite or virus in culture; assay type: cell-based
[5] = test system: P. aeruginosa; assay: microbe, parasite or virus in culture; assay type: cell-based; settings: Pseudomonas aeruginosa, read-out: MIC P. aeruginosa
[6] = test system: F. tularensis SCHU S4; set-up: species or system BALB/c mice; settings: mouse, in vivo
[7] = test system: B. mallei; assay: microbe, parasite or virus in culture; assay type: cell-based; settings: Burkholderia mallei, read-out: MIC B. mallei
[8] = test system: B. anthracis; assay: microbe, parasite or virus in culture; assay type: cell-based; settings: Bacillus anthracis, read-out: MIC B. anthracis
[9] = test system: F. tularensis; assay: microbe, parasite or virus in culture; assay type: cell-based; settings: Francisella tularensis, read-out: MIC F. tularensis (Original Test)
[10] = test system: H37Rv Colorado strain; assay: TB MIC Testing (Table 9); assay type: cell-based; settings: Mycobacterium tuberculosis, read-out: MIC Value, Standard Test Strain H27Rv
[11] = test system: TB; assay: DMID TB MIC Results (Table 10); assay type: cell-based; settings: Mycobacterium tuberculosis; solvent DMSO
[12] = test system: Bacillus anthracis; assay: microbe, parasite or virus in culture; assay type: cell-based
[13] = test system: Vero Cells; assay: Cytotoxicity Assay, CellTiter-Glo Luminescent Cell Viability Assay
[14] = test system: Y. pestis; assay: microbe, parasite or virus in culture; assay type: cell-based; settings: Yersinia pestis, read-out: MIC Y. pestis
[15] = test system: Y. pestis C092; assay type: in vivo, BALB/c mice
[16] = mouse, in vivo
[17] = test system: Plasmodium falciparum; assay: Anti-malaria testing; assay type: cell-based
[18] = test system: E. coli; assay: microbe, parasite or virus in culture; assay type: cell-based; settings: Escherichia coli, read-out: MIC E. coli
[19] = test system: H37Rv Colorado strain; assay: MBC Determination with H37Rv Colorado strain (Table 9); assay type: cell-based; settings: Mycobacterium tuberculosis; Performed with H37Rv
[20] = test system: Mtb H37Rv (SRI 1345), nonreplicating persistence; assay type: cell-based, Mycobacterium tuberculosis
[21] = test system: Mtb H37Rv (SRI 1345); assay: microbe, parasite or virus in culture; assay type: cell-based, Mycobacterium tuberculosis
[22] = test system: uninfected J774 macrophages; settings: mouse
[23] = test system: Mtb H37Rv (SRI 1345); assay: microbe, parasite or virus in culture; assay type: cell-based, Mycobacterium tuberculosis; remark: listed apart in the source
[24] = test system: HIV-1; assay: CEM-SS microtiter antiviral XTT cytoprotection assay; assay type: cell-based
[25] = test system: CEM-SS cells
[26] = test system: fresh human peripheral blood mononuclear cells
[27] = test system: Burkholderia pseudomallei; assay: microbe, parasite or virus in culture; assay type: cell-based
[28] = test system: several bacteria; assay type: cell-based
[29] = test system: Mtb H37Rv (SRI 1345) in murine J774 cells; assay type: cell-based, Mycobacterium tuberculosis
[30] = test system: HIV-1 ROJO (low passage clinical strain); assay: PBMC assay, virus production by reverse transcriptase activity; assay type: cell-based; settings: PBMCs
[31] = average of Test 1 and Test 2, read-out: Average IC50

Compound: C[C@@H]1COc2c(N3CCN(C(=N)NC(=N)N4CCN(c5c(F)cc6c(=O)c(C(=O)O)cn7c6c5OC[C@@H]7C)CC4)CC3)c(F)cc3c(=O)c(C(=O)O)cn1c23 [BVS-76D (XVII)]
- MIC [1]: 2 to 4 µg/mL (≈ 2.63 to 5.25 µM)
- MIC90 ([2]; Burkholderia mallei): < 4 µg/mL
- MIC90 ([3]; Yersinia pestis): < 4 µg/mL
- MIC90 ([4]; Francisella tularensis): < 4 µg/mL
- MIC [5]: 0.25 µg/mL (≈ 0.328 µM)
- life span of the mice (average) [6]: 10 days
- outcome by day 13 [6]: all the mice in test Groups 3, 4 and 5 were dead
- protection of infected mice [6]: partial protection; also recorded: not significantly effective
- MIC [7]: 1 µg/mL (≈ 1.31 µM)
- MIC [8]: < 0.06 µg/mL
- MIC [9]: < 0.06 µg/mL
- MIC [10]: 0.312 to 0.625 µg/mL (≈ 0.41 to 0.82 µM)
- IC50 [11]: 1.1 µg/mL (≈ 1.44 µM)
- IC90 [11]: 1.19 µg/mL (≈ 1.56 µM)
- MIC [11]: 1.25 µg/mL (≈ 1.64 µM)
- MIC90 ([12]; Bacillus anthracis): ≤ 0.25 µg/mL
- % Viability ([13]; 0.01 μg/ml): 119%
- % Viability ([13]; 0.02 μg/ml): 105%
- % Viability ([13]; 5 μg/ml): 113%
- % Viability ([13]; 10 μg/ml): 100%
- % Viability ([13]; 20 μg/ml, vs […] DMSO controls): 96%
- MIC [14]: < 0.06 µg/mL
- survival ([15]; 21 days): 100%
- protection of infected mice ([15]; mouse, in vivo, 5 mg/kg/day): complete protection
- symptoms in treated animals incl. unchallenged toxicity group [16]: some inflammation in the urinary, vaginal and rectal areas
- IC50 [17, 31]: 2.72 µM
- IC50 ([17]; read-out: IC50 Test 1): 4.02 µM
- IC50 ([17]; read-out: IC50 Test 2): 1.43 µM
- MIC [18]: < 0.06 µg/mL
- MBC [19]: 0.625 µg/mL (≈ 0.82 µM)

Compound: N=C(NCCCCCCNC(=N)NC(=N)N1CCN(c2cc3c(cc2F)c(=O)c(C(=O)O)cn3C2CC2)CC1)NC(=N)N1CCN(c2cc3c(cc2F)c(=O)c(C(=O)O)cn3C2CC2)CC1 [BVS-10A]
- LORA [20]: >6.25 µg/mL
- % inhibition at the MIC concentration [21]: 66%
- MIC ([21]; Mycobacterium tuberculosis, H37RV, 168 h, read-out: MIC H37Rv): 6.25 µg/mL (≈ 6.85 µM)
- MIC Range [2]: 0.25 to 8 µg/mL
- MIC50 ([2]; Burkholderia mallei): 1 µg/mL (≈ 1.1 µM)
- MIC90 ([2]; Burkholderia mallei): ≥ 4 µg/mL
- MTT % viability (high conc.) [22]: 73%
- MTT % viability (low conc.) [22]: >100%
- MTT % viability (mid conc.) [22]: 63%
- MIC Range [3]: 0.125 to 0.5 µg/mL
- MIC50 ([3]; Yersinia pestis): 0.25 µg/mL (≈ 0.274 µM)
- Colony Count [23]: TNTC
- MIC Range [4]: <0.03125 to 0.25 µg/mL
- MIC50 ([4]; Francisella tularensis): 0.0625 µg/mL (≈ 0.0685 µM)
- % RED. IN VIRAL CPC ([24]; 0.00032 nG/mL): 3%
- % RED. IN VIRAL CPC ([24]; 0.001 nG/mL): 4%
- % RED. IN VIRAL CPC ([24]; 0.0032 nG/mL): 1%
- % RED. IN VIRAL CPC ([24]; 0.01 nG/mL): 4%
- % RED. IN VIRAL CPC ([24]; 0.032 nG/mL): 7%
- % RED. IN VIRAL CPC ([24]; 0.1 nG/mL): 2%
- % RED. IN VIRAL CPC ([24]; 0.32 nG/mL): 4%
- % RED. IN VIRAL CPC ([24]; 1 nG/mL): 9%
- % RED. IN VIRAL CPC ([24]; 3.2 nG/mL): 2%
- % RED. IN VIRAL CPC ([24]; 10 nG/mL): 11%
- % RED. IN VIRAL CPC ([24]; 32 nG/mL): 100%
- % RED. IN VIRAL CPC ([24]; 100 nG/mL): 100%
- % CELL VIABILITY ([25]; 0.00032 nG/mL): 100%
- % CELL VIABILITY ([25]; 0.001 nG/mL): 100%
- % CELL VIABILITY ([25]; 0.0032 nG/mL): 100%
- % CELL VIABILITY ([25]; 0.01 nG/mL): 100%
- % CELL VIABILITY ([25]; 0.032 nG/mL): 100%
- % CELL VIABILITY ([25]; 0.1 nG/mL): 100%
- % CELL VIABILITY ([25]; 0.32 nG/mL): 100%
- % CELL VIABILITY ([25]; 1 nG/mL): 100%
- % CELL VIABILITY ([25]; 3.2 nG/mL): 100%
- % CELL VIABILITY ([25]; 10 nG/mL): 100%
- % CELL VIABILITY ([25]; 32 nG/mL): 100%
- % CELL VIABILITY ([25]; 100 nG/mL): 100%
- TC 25% ([25]; human): >100.00 UG/mL
- TC 50% ([25]; human): >100.00 UG/mL
- TC 95% ([25]; human): >100.00 UG/mL
- TOXICITY VALUES (XTT) % CC ([26]; 0.01 μg/ml): 103.2%
- TOXICITY VALUES (XTT) % CC ([26]; 0.032 μg/ml): 103.6%
- TOXICITY VALUES (XTT) % CC ([26]; 0.1 μg/ml): 97.1%
- TOXICITY VALUES (XTT) % CC ([26]; 0.32 μg/ml): 100.9%
- TOXICITY VALUES (XTT) % CC ([26]; 1 μg/ml): 96.2%
- TOXICITY VALUES (XTT) % CC ([26]; 3.2 μg/ml): 103.5%
- TOXICITY VALUES (XTT) % CC ([26]; 10 μg/ml): 108.3%
- TOXICITY VALUES (XTT) % CC ([26]; 32 μg/ml): 97.3%
- toxicity in PBMCs ([26]; 100 μg/mL): Toxicity was detected
- TOXICITY VALUES (XTT) % CC ([26]; 100 μg/ml): 51.2%
- MIC Range [12]: 0.25 to 2 µg/mL
- MIC50 ([12]; Bacillus anthracis): 0.5 µg/mL (≈ 0.548 µM)
- MIC Range [27]: 4 to 64 µg/mL
- isolates with MICs<16 μg/ml [27]: 30%
- MIC50 ([27]; Burkholderia pseudomallei): 32 µg/mL (≈ 35 µM)
- MIC90 ([27]; Burkholderia pseudomallei): 64 µg/mL (≈ 70.1 µM)
- minimum inhibitory concentrations (MIC), range over strains [28]: <0.128 to 12.8 µg/mL
- Microphage log reduction (low conc.) [29]: 1.14
- Microphage log reduction (mid conc.) [29]: 0.80
- concentrations at which active [30]: greater than 3.2 μg/mL

Compound: CC1COc2c(N3CCN(C(=N)NC#N)CC3)c(F)cc3c(=O)c(C(=O)O)cn1c23 (stereo not drawn) [BVS-60C (XVII)]
- MIC [1]: 1 to 2 µg/mL (≈ 2.41 to 4.83 µM)
- MIC90 ([2]; Burkholderia mallei): < 4 µg/mL
- MIC90 ([3]; Yersinia pestis): < 4 µg/mL
- MIC90 ([4]; Francisella tularensis): < 4 µg/mL
- MIC [5]: 2 µg/mL (≈ 4.83 µM)
- MIC [7]: 1 µg/mL (≈ 2.41 µM)
- MIC [8]: < 0.06 µg/mL
- MIC [9]: < 0.06 µg/mL
- MIC [10]: 0.312 µg/mL (≈ 0.753 µM)
- IC50 [11]: 0.22 µg/mL (≈ 0.531 µM)
- IC90 [11]: 0.23 µg/mL (≈ 0.555 µM)
- MIC [11]: 0.312 µg/mL (≈ 0.753 µM)
- MIC90 ([12]; Bacillus anthracis): ≤ 0.25 µg/mL
- % Viability ([13]; 0.01 μg/ml): 93%
- % Viability ([13]; 0.02 μg/ml): 95%
- % Viability ([13]; 5 μg/ml): 92%
- % Viability ([13]; 10 μg/ml): 88%
- % Viability ([13]; 20 μg/ml, vs […] DMSO controls): 96%
- MIC [14]: 0.06 µg/mL (≈ 0.145 µM)
- IC50 [17, 31]: 6.11 µM
- IC50 ([17]; read-out: IC50 Test 1): 6.11 µM
- MIC [18]: 0.06 to 0.12 µg/mL (≈ 0.145 to 0.29 µM)
- MBC [19]: 0.625 µg/mL (≈ 1.51 µM)
